Results: PubChem BioAssay AID2060487 (Molecular Pharmacology Branch, DTP, NCI, 2025)

Tested on: 997537-175-T-J1-PDC complex spheroid viability
Assay: Anticancer human tumor 997537-175-T-J1-PDC patient-derived colon adenocarcinoma cell line growth inhibition [GQUAD]
Conditions: for IC50: curve of first compound; for viability, T/C: stronger effect = lower value
Outline: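 Multi-cell-type spheroids of tumor cells with HUVEC and mesenchymal stem cells, treated with drug combinations. Concentrations descend in half-log steps from near clinical Cmax, or from 10 microM where Cmax is unknown; viability read-out.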

[1] = second compound 0.0316 µM, first compound 0.0316 µM
[2] = second compound 0.0316 µM, first compound 0.1 µM
[3] = second compound 0.0316 µM, first compound 0.316 µM
[4] = second compound 0.0316 µM, first compound 1 µM
[5] = second compound 0.0316 µM, first compound 3.16 µM
[6] = second compound 0.0316 µM, first compound 10 µM
[7] = second compound 0.1 µM, first compound 0.0316 µM
[8] = second compound 0.1 µM, first compound 0.1 µM
[9] = second compound 0.1 µM, first compound 0.316 µM
[10] = second compound 0.1 µM, first compound 1 µM
[11] = second compound 0.1 µM, first compound 3.16 µM
[12] = second compound 0.1 µM, first compound 10 µM
[13] = second compound 0.316 µM, first compound 0.0316 µM
[14] = second compound 0.316 µM, first compound 0.1 µM
[15] = second compound 0.316 µM, first compound 0.316 µM
[16] = second compound 0.316 µM, first compound 1 µM
[17] = second compound 0.316 µM, first compound 3.16 µM
[18] = second compound 0.316 µM, first compound 10 µM
[19] = second compound 1 µM, first compound 0.0316 µM
[20] = second compound 1 µM, first compound 0.1 µM
[21] = second compound 1 µM, first compound 0.316 µM
[22] = second compound 1 µM, first compound 1 µM
[23] = second compound 1 µM, first compound 3.16 µM
[24] = second compound 1 µM, first compound 10 µM
[25] = second compound 3.16 µM, first compound 0.0316 µM
[26] = second compound 3.16 µM, first compound 0.1 µM
[27] = second compound 3.16 µM, first compound 0.316 µM
[28] = second compound 3.16 µM, first compound 1 µM
[29] = second compound 3.16 µM, first compound 3.16 µM
[30] = second compound 3.16 µM, first compound 10 µM
[31] = second compound 10 µM, first compound 0.0316 µM
[32] = second compound 10 µM, first compound 0.1 µM
[33] = second compound 10 µM, first compound 0.316 µM
[34] = second compound 10 µM, first compound 1 µM
[35] = second compound 10 µM, first compound 3.16 µM
[36] = second compound 10 µM, first compound 10 µM
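Also: spheroids exposed to the agents for 7 days.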
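For viability, T/C in this document: 100% = DMSO vehicle control viability.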

CC1COCCN1c1cc(C2(O)CC3CCC(C2)O3)c2cnn(-c3ccn[nH]3)c2n1 (centres undefined) + CN(C)c1ccc(Nc2c3ccc(NC(=O)CCN4CCCC4)cc3nc3cc(NC(=O)CCN4CCCC4)ccc23)cc1
IC50 (second compound 0.0316 µM): 0.786 µM
IC50 (second compound 0.1 µM): 0.461 µM
IC50 (second compound 0.316 µM): 1.69 µM
IC50 (second compound 1 µM): 0.211 µM
IC50 (second compound 3.16 µM): > 10 µM
IC50 (second compound 10 µM): > 10 µM
viability, T/C [1]: 78.9%
viability, T/C [2]: 74.6%
viability, T/C [3]: 57.6%
viability, T/C [4]: 46.9%
viability, T/C [5]: 44.2%
viability, T/C [6]: 51.1%
viability, T/C [7]: 105%
viability, T/C [8]: 79%
viability, T/C [9]: 55.3%
viability, T/C [10]: 37.1%
viability, T/C [11]: 43.8%
viability, T/C [12]: 48.5%
viability, T/C [13]: 86.9%
viability, T/C [14]: 60.2%
viability, T/C [15]: 58.5%
viability, T/C [16]: 42.2%
viability, T/C [17]: 48.7%
viability, T/C [18]: 54.2%
viability, T/C [19]: 77.7%
viability, T/C [20]: 52.8%
viability, T/C [21]: 44.8%
viability, T/C [22]: 40.7%
viability, T/C [23]: 49%
viability, T/C [24]: 60%
viability, T/C [25]: 55.8%
viability, T/C [26]: 65.7%
viability, T/C [27]: 70.2%
viability, T/C [28]: 45.6%
viability, T/C [29]: 47.9%
viability, T/C [30]: 66.5%
viability, T/C [31]: 82.7%
viability, T/C [32]: 61.9%
viability, T/C [33]: 69.4%
viability, T/C [34]: 47%
viability, T/C [35]: 41.8%
viability, T/C [36]: 66.5%

Nc1ccn(C2OC(CO)C(O)C2(F)F)c(=O)n1 (centres undefined) + Cc1[nH]c2ccc(F)cc2c1-c1nc2c3cccnc3c3ncccc3c2[nH]1
IC50 (second compound 0.0316 µM): > 10 µM
IC50 (second compound 0.1 µM): > 10 µM
IC50 (second compound 0.316 µM): > 10 µM
IC50 (second compound 1 µM): > 10 µM
IC50 (second compound 3.16 µM): > 10 µM
IC50 (second compound 10 µM): > 10 µM
viability, T/C [1]: 106%
viability, T/C [2]: 82.5%
viability, T/C [3]: 98.7%
viability, T/C [4]: 80.1%
viability, T/C [5]: 86.2%
viability, T/C [6]: 97.4%
viability, T/C [7]: 107%
viability, T/C [8]: 87.2%
viability, T/C [9]: 91.5%
viability, T/C [10]: 74.2%
viability, T/C [11]: 87.4%
viability, T/C [12]: 87.5%
viability, T/C [13]: 99.2%
viability, T/C [14]: 84.6%
viability, T/C [15]: 84.1%
viability, T/C [16]: 73.9%
viability, T/C [17]: 90.4%
viability, T/C [18]: 70.2%
viability, T/C [19]: 103%
viability, T/C [20]: 96.3%
viability, T/C [21]: 94.7%
viability, T/C [22]: 98.2%
viability, T/C [23]: 82.6%
viability, T/C [24]: 93.5%
viability, T/C [25]: 77.4%
viability, T/C [26]: 69%
viability, T/C [27]: 76%
viability, T/C [28]: 73.1%
viability, T/C [29]: 83%
viability, T/C [30]: 84.8%
viability, T/C [31]: 78.3%
viability, T/C [32]: 81.4%
viability, T/C [33]: 90.4%
viability, T/C [34]: 87.2%
viability, T/C [35]: 80.1%
viability, T/C [36]: 87.5%
